According to patent US11707440B2 (priority 2017, dated 2023):

Key:
[1] = test system: patients with treatment-resistant depression (TRD); assay: Adverse events, Example 7; type: in vivo, human; settings: for Dissociation, number of participants / Dissociative disorder, % of participants / Dissociative disorder, number of participants / Dizziness, % of participants / Dizziness, number of participants / Dysgeusia, % of participants / Dysgeusia, number of participants / Feeling abnormal, % of participants / Feeling abnormal, number of participants / Headache, % of participants / Headache, number of participants / Hypersomnia, % of participants / Hypersomnia, number of participants / Hypertension, number of participants / Hypoesthesia oral, % of participants / Hypoesthesia oral, number of participants / Insomnia, number of participants / Nasal discomfort, number of participants / Nausea, % of participants / Nausea, number of participants / Oropharyngeal pain, number of participants / Polyuria, number of participants / Sedation, % of participants / Sedation, number of participants / Throat irritation, % of participants / Throat irritation, number of participants / Total with events, % of participants / Total with events, number of participants / Tunnel vision, number of participants / Vertigo, % of participants / Vertigo, number of participants / Vision blurred, number of participants / Dissociation, % of participants / Hypertension, % of participants / Insomnia, % of participants / Nasal discomfort, % of participants / Oropharyngeal pain, % of participants / Polyuria, % of participants / Tunnel vision, % of participants / Vision blurred, % of participants: double-blind
Method: Adverse events were monitored throughout the study. Other safety assessments (i.e., laboratory tests, vital signs, physical examination) were performed at pre-specified time points. Vital signs, the Clinician Administered Dissociative States Scale (CADSS; Bremner, “Measurement of dissociative states with the clinician-administered dissociative states scale (CADSS)”, J. Traumatic Stress, 1998, 11(1):125-136), and the 4-item positive symptom subscale from the Brief Psychiatric Rating Scale (BPRS; Overall, “The Brief Psychiatric Rating Scale. Psychological Reports”, 1962, 10:799-812) were assessed pre-dose, at 40 minutes, and 2 hours post-dose.
Safety data were analyzed in Period 1, Period 2, double-blind, and open-label data sets, for all subjects receiving at least 1 dose of study medication.

[2] = test system: elderly subjects with TRD; settings: US patients aged ≥65 years

Compound: CN[C@]1(c2ccccc2Cl)CCCCC1=O [esketamine, (S)-2-(2-chlorophenyl)-2-(methylamino)cyclohexanone]
- Dissociation, number of participants ([1]; 28 mg): 0
- Dissociative disorder, % of participants ([1]; 28 mg): 11%
- Dissociative disorder, number of participants ([1]; 28 mg): 2
- Dizziness, % of participants ([1]; 28 mg): 21%
- Dizziness, number of participants ([1]; 28 mg): 4
- Dysgeusia, % of participants ([1]; 28 mg): 11%
- Dysgeusia, number of participants ([1]; 28 mg): 2
- Feeling abnormal, % of participants ([1]; 28 mg): 11%
- Feeling abnormal, number of participants ([1]; 28 mg): 2
- Headache, % of participants ([1]; 28 mg): 32%
- Headache, number of participants ([1]; 28 mg): 6
- Hypersomnia, % of participants ([1]; 28 mg): 11%
- Hypersomnia, number of participants ([1]; 28 mg): 2
- Hypertension, number of participants ([1]; 28 mg): 0
- Hypoesthesia oral, % of participants ([1]; 28 mg): 5%
- Hypoesthesia oral, number of participants ([1]; 28 mg): 1
- Insomnia, number of participants ([1]; 28 mg): 0
- Nasal discomfort, number of participants ([1]; 28 mg): 0
- Nausea, % of participants ([1]; 28 mg): 11%
- Nausea, number of participants ([1]; 28 mg): 2
- Oropharyngeal pain, number of participants ([1]; 28 mg): 0
- Polyuria, number of participants ([1]; 28 mg): 0
- Sedation, % of participants ([1]; 28 mg): 5%
- Sedation, number of participants ([1]; 28 mg): 1
- Throat irritation, % of participants ([1]; 28 mg): 5%
- Throat irritation, number of participants ([1]; 28 mg): 1
- Total with events, % of participants ([1]; 28 mg): 58%
- Total with events, number of participants ([1]; 28 mg): 11
- Tunnel vision, number of participants ([1]; 28 mg): 0
- Vertigo, % of participants ([1]; 28 mg): 11%
- Vertigo, number of participants ([1]; 28 mg): 2
- Vision blurred, number of participants ([1]; 28 mg): 0
- Dissociation, % of participants ([1]; 56 mg): 35%
- Dissociation, number of participants ([1]; 56 mg): 7
- Dissociative disorder, % of participants ([1]; 56 mg): 5%
- Dissociative disorder, number of participants ([1]; 56 mg): 1
- Dizziness, % of participants ([1]; 56 mg): 40%
- Dizziness, number of participants ([1]; 56 mg): 8
- Dysgeusia, % of participants ([1]; 56 mg): 15%
- Dysgeusia, number of participants ([1]; 56 mg): 3
- Feeling abnormal, % of participants ([1]; 56 mg): 5%
- Feeling abnormal, number of participants ([1]; 56 mg): 1
- Headache, % of participants ([1]; 56 mg): 15%
- Headache, number of participants ([1]; 56 mg): 3
- Hypersomnia, number of participants ([1]; 56 mg): 0
- Hypertension, % of participants ([1]; 56 mg): 10%
- Hypertension, number of participants ([1]; 56 mg): 2
- Hypoesthesia oral, % of participants ([1]; 56 mg): 20%
- Hypoesthesia oral, number of participants ([1]; 56 mg): 4
- Insomnia, % of participants ([1]; 56 mg): 10%
- Insomnia, number of participants ([1]; 56 mg): 2
- Nasal discomfort, % of participants ([1]; 56 mg): 10%
- Nasal discomfort, number of participants ([1]; 56 mg): 2
- Nausea, % of participants ([1]; 56 mg): 20%
- Nausea, number of participants ([1]; 56 mg): 4
- Oropharyngeal pain, % of participants ([1]; 56 mg): 5%
- Oropharyngeal pain, number of participants ([1]; 56 mg): 1
- Polyuria, % of participants ([1]; 56 mg): 10%
- Polyuria, number of participants ([1]; 56 mg): 2
- Sedation, % of participants ([1]; 56 mg): 10%
- Sedation, number of participants ([1]; 56 mg): 2
- Throat irritation, number of participants ([1]; 56 mg): 0
- Total with events, % of participants ([1]; 56 mg): 80%
- Total with events, number of participants ([1]; 56 mg): 16
- Tunnel vision, number of participants ([1]; 56 mg): 0
- Vertigo, % of participants ([1]; 56 mg): 5%
- Vertigo, number of participants ([1]; 56 mg): 1
- Vision blurred, number of participants ([1]; 56 mg): 0
- Dissociation, % of participants ([1]; 84 mg): 24%
- Dissociation, number of participants ([1]; 84 mg): 4
- Dissociative disorder, % of participants ([1]; 84 mg): 24%
- Dissociative disorder, number of participants ([1]; 84 mg): 4
- Dizziness, % of participants ([1]; 84 mg): 47%
- Dizziness, number of participants ([1]; 84 mg): 8
- Dysgeusia, % of participants ([1]; 84 mg): 29%
- Dysgeusia, number of participants ([1]; 84 mg): 5
- Feeling abnormal, % of participants ([1]; 84 mg): 6%
- Feeling abnormal, number of participants ([1]; 84 mg): 1
- Headache, % of participants ([1]; 84 mg): 18%
- Headache, number of participants ([1]; 84 mg): 3
- Hypersomnia, number of participants ([1]; 84 mg): 0
- Hypertension, % of participants ([1]; 84 mg): 6%
- Hypertension, number of participants ([1]; 84 mg): 1
- Hypoesthesia oral, % of participants ([1]; 84 mg): 12%
- Hypoesthesia oral, number of participants ([1]; 84 mg): 2
- Insomnia, number of participants ([1]; 84 mg): 0
- Nasal discomfort, % of participants ([1]; 84 mg): 6%
- Nasal discomfort, number of participants ([1]; 84 mg): 1
- Nausea, % of participants ([1]; 84 mg): 24%
- Nausea, number of participants ([1]; 84 mg): 4
- Oropharyngeal pain, % of participants ([1]; 84 mg): 12%
- Oropharyngeal pain, number of participants ([1]; 84 mg): 2
- Polyuria, number of participants ([1]; 84 mg): 0
- Sedation, % of participants ([1]; 84 mg): 6%
- Sedation, number of participants ([1]; 84 mg): 1
- Throat irritation, % of participants ([1]; 84 mg): 12%
- Throat irritation, number of participants ([1]; 84 mg): 2
- Total with events, % of participants ([1]; 84 mg): 88%
- Total with events, number of participants ([1]; 84 mg): 15
- Tunnel vision, % of participants ([1]; 84 mg): 12%
- Tunnel vision, number of participants ([1]; 84 mg): 2
- Vertigo, % of participants ([1]; 84 mg): 6%
- Vertigo, number of participants ([1]; 84 mg): 1
- Vision blurred, % of participants ([1]; 84 mg): 12%
- Vision blurred, number of participants ([1]; 84 mg): 2
- Dissociation, % of participants ([1]; Total esketamine): 20%
- Dissociation, number of participants ([1]; Total esketamine): 11
- Dissociative disorder, % of participants ([1]; Total esketamine): 13%
- Dissociative disorder, number of participants ([1]; Total esketamine): 7
- Dizziness, % of participants ([1]; Total esketamine): 36%
- Dizziness, number of participants ([1]; Total esketamine): 20
- Dysgeusia, % of participants ([1]; Total esketamine): 18%
- Dysgeusia, number of participants ([1]; Total esketamine): 10
- Feeling abnormal, % of participants ([1]; Total esketamine): 7%
- Feeling abnormal, number of participants ([1]; Total esketamine): 4
- Headache, % of participants ([1]; Total esketamine): 21%
- Headache, number of participants ([1]; Total esketamine): 12
- Hypersomnia, % of participants ([1]; Total esketamine): 4%
- Hypersomnia, number of participants ([1]; Total esketamine): 2
- Hypertension, % of participants ([1]; Total esketamine): 5%
- Hypertension, number of participants ([1]; Total esketamine): 3
- Hypoesthesia oral, % of participants ([1]; Total esketamine): 13%
- Hypoesthesia oral, number of participants ([1]; Total esketamine): 7
- Insomnia, % of participants ([1]; Total esketamine): 4%
- Insomnia, number of participants ([1]; Total esketamine): 2
- Nasal discomfort, % of participants ([1]; Total esketamine): 5%
- Nasal discomfort, number of participants ([1]; Total esketamine): 3
- Nausea, % of participants ([1]; Total esketamine): 18%
- Nausea, number of participants ([1]; Total esketamine): 10
- Oropharyngeal pain, % of participants ([1]; Total esketamine): 5%
- Oropharyngeal pain, number of participants ([1]; Total esketamine): 3
- Polyuria, % of participants ([1]; Total esketamine): 4%
- Polyuria, number of participants ([1]; Total esketamine): 2
- Sedation, % of participants ([1]; Total esketamine): 7%
- Sedation, number of participants ([1]; Total esketamine): 4
- Throat irritation, % of participants ([1]; Total esketamine): 5%
- Throat irritation, number of participants ([1]; Total esketamine): 3
- Total with events, % of participants ([1]; Total esketamine): 75%
- Total with events, number of participants ([1]; Total esketamine): 42
- Tunnel vision, % of participants ([1]; Total esketamine): 4%
- Tunnel vision, number of participants ([1]; Total esketamine): 2
- Vertigo, % of participants ([1]; Total esketamine): 7%
- Vertigo, number of participants ([1]; Total esketamine): 4
- Vision blurred, % of participants ([1]; Total esketamine): 4%
- Vision blurred, number of participants ([1]; Total esketamine): 2
- Participants with adverse events leading to discontinuation of study drug ([1]; double-blind phase): 5%
- Adverse event dizziness ([1]; open-label phase): 38.6%
- Adverse event dysgeusia ([1]; open-label phase): 22.8%
- Adverse event headache ([1]; open-label phase): 14.0%
- Adverse event nausea ([1]; open-label phase): 15.8%
- Adverse event sedation ([1]; open-label phase): 10.5%
- Participants reporting transient dissociative symptoms ([1]; open-label phase): 24.6%
- Participants with adverse events leading to discontinuation of study drug ([1]; open-label phase): 2%
- Patients who withdrew the nasal spray [2]: 2 patients
